In ChEMBL document CHEMBL1201862, “PubChem BioAssay data set” (2004):
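In this assay, cells in 96-well plates receive the compound at five concentrations for 48 hours. Endpoints are linearly interpolated between the surrounding concentrations. At the GI50, growth is halved.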 Activity calls are given as the source filed them. No stated cut-off is given here; in the data, active = GI50 up to about 1.1 µM and inactive = higher.

Legend:
Test in all cases: growth of human tumour cells (NCI), 48 h
786-0 = test system: 786-0
A549 = test system: A549
ACHN = test system: ACHN
COLO 205 = test system: COLO 205
HCT-116 = test system: HCT-116
HCT-15 = test system: HCT-15
Hs-578T = test system: Hs-578T
K562 = test system: K562
MDA-MB-231 = test system: MDA-MB-231
Malme-3M = test system: Malme-3M
NCI-H460 = test system: NCI-H460
NCI/ADR-RES = test system: NCI/ADR-RES
OVCAR-3 = test system: OVCAR-3
PC-3 = test system: PC-3
SK-MEL-2 = test system: SK-MEL-2
SW-620 = test system: SW-620
OVCAR-8 = test system: OVCAR-8
RPMI-8226 = test system: RPMI-8226
U-251 = test system: U-251

Compound	GI50 (786-0)	GI50 (A549)	GI50 (ACHN)	GI50 (COLO 205)	GI50 (HCT-116)	GI50 (HCT-15)	GI50 (Hs-578T)	GI50 (K562)	GI50 (MDA-MB-231)	GI50 (Malme-3M)	GI50 (NCI-H460)	GI50 (NCI/ADR-RES)	GI50 (OVCAR-3)	GI50 (PC-3)	GI50 (SK-MEL-2)	GI50 (SW-620)	GI50 (OVCAR-8)	GI50 (RPMI-8226)	GI50 (U-251)
O=C1OCC(O)=C1C(c1ccc(Cl)cc1)c1cc2c(cc1O)OCO2 (configuration not stated)	> 100 µM (inactive)	> 100 µM (inactive)	> 100 µM (inactive)	> 100 µM (inactive)	> 100 µM (inactive)	> 100 µM	> 100 µM (inactive)	> 100 µM (inactive)	> 100 µM (inactive)	> 100 µM (inactive)	> 100 µM (inactive)	> 100 µM (inactive)	> 100 µM (inactive)	> 100 µM (inactive)	> 100 µM (inactive)	> 100 µM (inactive)	–	–	–
CC(Oc1ccc(Cl)cc1Cl)C(=O)NN1C(=O)CSC1c1ccc(Cl)cc1 (configuration not stated)	53.6 µM (inactive)	31 µM (inactive)	42.5 µM (inactive)	> 100 µM (inactive)	57.9 µM (inactive)	> 100 µM	64.7 µM (inactive)	44.1 µM (inactive)	27.4 µM (inactive)	–	> 100 µM (inactive)	> 100 µM (inactive)	54.5 µM (inactive)	38.5 µM (inactive)	56.1 µM (inactive)	> 100 µM (inactive)	46.9 µM (inactive)	35.7 µM (inactive)	40.3 µM (inactive)
CCCC(=O)NC(NC1CCCCC1)(C(=O)OCC)C(F)(F)F (configuration not stated)	> 100 µM (inactive)	> 100 µM (inactive)	> 100 µM (inactive)	–	> 100 µM (inactive)	> 100 µM	> 100 µM (inactive)	> 100 µM (inactive)	–	> 100 µM (inactive)	> 100 µM (inactive)	> 100 µM (inactive)	> 100 µM (inactive)	> 100 µM (inactive)	> 100 µM (inactive)	> 100 µM (inactive)	> 100 µM (inactive)	> 100 µM (inactive)	> 100 µM (inactive)
N#CC(c1ccccc1)N(CCCCCCN(C(=O)c1ccccc1)C(C#N)c1ccccc1)C(=O)c1ccccc1 (configuration not stated)	33.7 µM (inactive)	40.7 µM (inactive)	38.4 µM (inactive)	18.1 µM (inactive)	25.1 µM (inactive)	31.3 µM	26.1 µM (inactive)	35.2 µM (inactive)	47.6 µM (inactive)	35.8 µM (inactive)	27.6 µM (inactive)	16 µM (inactive)	39 µM (inactive)	28.2 µM (inactive)	23.6 µM (inactive)	39.3 µM (inactive)	30.1 µM (inactive)	–	52.6 µM (inactive)
CN(C)CCCNC1=C(Cl)C(=O)c2c(O)ccc(O)c2C1=O	1.36 µM (inactive)	1.66 µM (inactive)	6.1 µM (inactive)	1.49 µM (inactive)	2.26 µM (inactive)	1.8 µM	1.28 µM (inactive)	3.61 µM (inactive)	2.9 µM (inactive)	1.84 µM (inactive)	2.13 µM (inactive)	2.44 µM (inactive)	2.24 µM (inactive)	2.54 µM (inactive)	–	1.82 µM (inactive)	3.27 µM (inactive)	–	1.74 µM (inactive)
CCC(=O)Nc1ccc(N2C(=O)/C(=C/c3ccc(O)c(OC)c3)N=C2c2ccccc2)cc1	24 µM (inactive)	21.3 µM (inactive)	23.3 µM (inactive)	–	34.4 µM (inactive)	21.3 µM	61.1 µM (inactive)	18.5 µM (inactive)	–	29.8 µM (inactive)	23.9 µM (inactive)	70.6 µM (inactive)	28.3 µM (inactive)	16.5 µM (inactive)	23.6 µM (inactive)	51.2 µM (inactive)	44.5 µM (inactive)	6.82 µM (inactive)	–
